From ChEMBL document CHEMBL2016514, “Homobivalent ligands of the atypical antipsychotic clozapine: design, synthesis, and pharmacological evaluation” (J Med Chem, 2012)

How the values were obtained:
D(2) dopamine receptor [1] = target: T1, D(2) dopamine receptor (Homo sapiens, UniProt P14416); experiment: Inhibition of human dopamine D2L receptor expressed in intact CHO FlpIn cells assessed as inhibition of receptor-mediated mediated ERK1/2 phosphorylation by Alpha-Screen plate-based assay; format: cell-based
D(2) dopamine receptor [2] = target: T1, D(2) dopamine receptor; experiment: Displacement of [3H]-spiperone from human dopamine D2L receptor expressed in CHO FlpIn cell membrane measured after 3 hrs by topcount scintillation counting

T1 sequence (P14416 whole entry): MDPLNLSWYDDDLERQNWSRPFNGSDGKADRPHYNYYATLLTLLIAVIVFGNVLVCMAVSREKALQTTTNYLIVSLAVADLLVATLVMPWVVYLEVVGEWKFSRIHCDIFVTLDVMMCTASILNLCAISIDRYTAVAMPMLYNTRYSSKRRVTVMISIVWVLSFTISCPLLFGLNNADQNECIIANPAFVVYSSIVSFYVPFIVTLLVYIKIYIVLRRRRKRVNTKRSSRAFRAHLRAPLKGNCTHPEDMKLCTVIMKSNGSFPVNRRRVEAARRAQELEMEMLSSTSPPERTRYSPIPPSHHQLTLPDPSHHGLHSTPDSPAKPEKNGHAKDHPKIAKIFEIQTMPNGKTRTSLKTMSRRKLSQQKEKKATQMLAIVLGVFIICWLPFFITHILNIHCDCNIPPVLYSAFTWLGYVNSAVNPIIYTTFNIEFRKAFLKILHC

| Compound | IC50 (D(2) dopamine receptor [1]; read-out: IC50) | pIC50 (D(2) dopamine receptor [1]; cho) | also measured |
| --- | --- | --- | --- |
| CCCCCCCCCC(=O)N1c2ccc(Cl)cc2N=C(N2CCN(C)CC2)c2ccccc21 | 776 nM |  |  |
| CN1CCN(C2=Nc3cc(Cl)ccc3N(C(=O)CCCCCCC(=O)N3c4ccc(Cl)cc4N=C(N4CCN(C)CC4)c4ccccc43)c3ccccc32)CC1 | 2660 nM |  | IC50 (D(2) dopamine receptor [1]; read-out: pIC50 (converted)): 1780 nM |
| CN1CCN(C2=Nc3cc(Cl)ccc3N(C(=O)CCCCCCCCC(=O)N3c4ccc(Cl)cc4N=C(N4CCN(C)CC4)c4ccccc43)c3ccccc32)CC1 | > 10000 nM | < 5 |  |
| CN1CCN(C2=Nc3cc(Cl)ccc3N(C(=O)CCCCCCCCCCC(=O)N3c4ccc(Cl)cc4N=C(N4CCN(C)CC4)c4ccccc43)c3ccccc32)CC1 | > 10000 nM | < 5 |  |
| CN1CCN(C2=Nc3cc(Cl)ccc3N(C(=O)CCCCCCCCCCCCC(=O)N3c4ccc(Cl)cc4N=C(N4CCN(C)CC4)c4ccccc43)c3ccccc32)CC1 | > 10000 nM | < 5 |  |
| CN1CCN(C2=Nc3cc(Cl)ccc3N(C(=O)CCCCCCCCCCCCCCCCC(=O)N3c4ccc(Cl)cc4N=C(N4CCN(C)CC4)c4ccccc43)c3ccccc32)CC1 | > 10000 nM | < 5 |  |
| CN1CCN(C2=Nc3cc(Cl)ccc3N(C(=O)CCCCCCCCCCCCCCCCCCC(=O)N3c4ccc(Cl)cc4N=C(N4CCN(C)CC4)c4ccccc43)c3ccccc32)CC1 | > 10000 nM | < 5 |  |
| CCCCCCCCCC(=O)NN1c2ccc(Cl)cc2N=C(N2CCN(C)CC2)c2ccccc21 | 8940 nM |  |  |
| CN1CCN(C2=Nc3cc(Cl)ccc3N(NC(=O)CCCCC(=O)NN3c4ccc(Cl)cc4N=C(N4CCN(C)CC4)c4ccccc43)c3ccccc32)CC1 | 2080 nM |  | IC50 (D(2) dopamine receptor [1]; read-out: pIC50 (converted)): 2040 nM |
| CN1CCN(C2=Nc3cc(Cl)ccc3N(NC(=O)CCCCCCC(=O)NN3c4ccc(Cl)cc4N=C(N4CCN(C)CC4)c4ccccc43)c3ccccc32)CC1 | 2440 nM |  |  |
| CN1CCN(C2=Nc3cc(Cl)ccc3N(NC(=O)CCCCCCCCC(=O)NN3c4ccc(Cl)cc4N=C(N4CCN(C)CC4)c4ccccc43)c3ccccc32)CC1 | > 10000 nM | < 5 |  |
| CN1CCN(C2=Nc3cc(Cl)ccc3N(NC(=O)CCCCCCCCCCC(=O)NN3c4ccc(Cl)cc4N=C(N4CCN(C)CC4)c4ccccc43)c3ccccc32)CC1 | > 10000 nM | < 5 |  |
| CN1CCN(C2=Nc3cc(Cl)ccc3N(NC(=O)CCCCCCCCCCCCC(=O)NN3c4ccc(Cl)cc4N=C(N4CCN(C)CC4)c4ccccc43)c3ccccc32)CC1 | > 10000 nM | < 5 |  |
| CN1CCN(C2=Nc3cc(Cl)ccc3N(NC(=O)CCCCCCCCCCCCCCCCC(=O)NN3c4ccc(Cl)cc4N=C(N4CCN(C)CC4)c4ccccc43)c3ccccc32)CC1 | > 10000 nM | < 5 |  |
| CN1CCN(C2=Nc3cc(Cl)ccc3N(NC(=O)CCCCCCCCCCCCCCCCCCC(=O)NN3c4ccc(Cl)cc4N=C(N4CCN(C)CC4)c4ccccc43)c3ccccc32)CC1 | > 10000 nM | < 5 |  |
| CN1CCN(C2=Nc3cc(Cl)ccc3N(NC(=O)CCC(=O)N3CCN(C(=O)CCC(=O)NN4c5ccc(Cl)cc5N=C(N5CCN(C)CC5)c5ccccc54)CC3)c3ccccc32)CC1 | 1620 nM |  |  |
| CN1CCN(C2=Nc3cc(Cl)ccc3N(NC(=O)CCCC(=O)N3CCN(C(=O)CCCC(=O)NN4c5ccc(Cl)cc5N=C(N5CCN(C)CC5)c5ccccc54)CC3)c3ccccc32)CC1 | 2630 nM |  |  |
| CN1CCN(C2=Nc3cc(Cl)ccc3N(NC(=O)CCC(=O)OCCOC(=O)CCC(=O)NN3c4ccc(Cl)cc4N=C(N4CCN(C)CC4)c4ccccc43)c3ccccc32)CC1 | 2410 nM |  |  |
| CCCCCCCCCC(=O)NCCCN1CCN(C2=Nc3cc(Cl)ccc3Nc3ccccc32)CC1 | 1460 nM |  | Ki (D(2) dopamine receptor [2]; read-out: Ki): 9.1 nM; Ki (D(2) dopamine receptor [2]; read-out: pKi (converted)): 8.91 nM |
| O=C(CCCCC(=O)NCCCN1CCN(C2=Nc3cc(Cl)ccc3Nc3ccccc32)CC1)NCCCN1CCN(C2=Nc3cc(Cl)ccc3Nc3ccccc32)CC1 | 87 nM |  | Ki (D(2) dopamine receptor [2]; read-out: Ki): 3.6 nM; Ki (D(2) dopamine receptor [2]; read-out: pKi (converted)): 3.16 nM |
| O=C(CCCCCCC(=O)NCCCN1CCN(C2=Nc3cc(Cl)ccc3Nc3ccccc32)CC1)NCCCN1CCN(C2=Nc3cc(Cl)ccc3Nc3ccccc32)CC1 | 23 nM |  | Ki (D(2) dopamine receptor [2]; read-out: Ki): 1.41 nM; Ki (D(2) dopamine receptor [2]; read-out: pKi (converted)): 1.35 nM |
| O=C(CCCCCCCCC(=O)NCCCN1CCN(C2=Nc3cc(Cl)ccc3Nc3ccccc32)CC1)NCCCN1CCN(C2=Nc3cc(Cl)ccc3Nc3ccccc32)CC1 | 44 nM |  | Ki (D(2) dopamine receptor [2]; read-out: Ki): 1.35 nM; Ki (D(2) dopamine receptor [2]; read-out: pKi (converted)): 1.23 nM |
| O=C(CCCCCCCCCCC(=O)NCCCN1CCN(C2=Nc3cc(Cl)ccc3Nc3ccccc32)CC1)NCCCN1CCN(C2=Nc3cc(Cl)ccc3Nc3ccccc32)CC1 | 1120 nM |  | IC50 (D(2) dopamine receptor [1]; read-out: pIC50 (converted)): 1100 nM |
| O=C(CCCCCCCCCCCCC(=O)NCCCN1CCN(C2=Nc3cc(Cl)ccc3Nc3ccccc32)CC1)NCCCN1CCN(C2=Nc3cc(Cl)ccc3Nc3ccccc32)CC1 | 11000 nM |  |  |
| O=C(CCCCCCCCCCCCCCCCC(=O)NCCCN1CCN(C2=Nc3cc(Cl)ccc3Nc3ccccc32)CC1)NCCCN1CCN(C2=Nc3cc(Cl)ccc3Nc3ccccc32)CC1 | 7800 nM |  | Ki (D(2) dopamine receptor [2]; read-out: Ki): 269 nM; Ki (D(2) dopamine receptor [2]; read-out: pKi (converted)): 245 nM |
| O=C(CCCCCCCCCCCCCCCCCCC(=O)NCCCN1CCN(C2=Nc3cc(Cl)ccc3Nc3ccccc32)CC1)NCCCN1CCN(C2=Nc3cc(Cl)ccc3Nc3ccccc32)CC1 |  |  | IC50 (D(2) dopamine receptor [1]; cho, read-out: IC50): > 10000 nM; IC50 (D(2) dopamine receptor [1]; read-out: pIC50 (converted)): > 10000 nM |
